Assay results reported in PMC4339527 (Bioorganic & medicinal chemistry, 2015).
Like-named read-outs stand apart in the source and are kept apart here.

Legend:
P. aeruginosa T3SS [1] = molecular target: T1, P. aeruginosa T3SS (Pseudomonas aeruginosa, UniProt P95434); experiment: T3SS-mediated secretion assay; type: cell-based; details: for potency increase in the β-lactamase secretion assay over the unoptimized compound: 37a vs 34o, 37b vs 34r
P. aeruginosa T3SS [2] = molecular target: T1, P. aeruginosa T3SS; type: cell-based; details: for IC50: read-out: translocation IC50, CHO cells + P. aeruginosa PA99U, LDH release
P. aeruginosa T3SS [3] = details: read-out: translocation IC50; activity in translocation assays; cited from earlier work

Compound	potency increase in the β-lactamase secretion assay over the unoptimized compound (P. aeruginosa T3SS [1]) [fold]	IC50 (P. aeruginosa T3SS [2]) [µM]	also measured
CC[C@@H](Oc1ncc(Cl)cc1Cl)C(=O)NCc1ccc2sccc2c1 [Compound 37a, (R)-N-[(Benzothiophene-5-yl)methyl]-2-[(3,5-dichloropyridin-2-yl)oxy]butanamide]	6		
CC[C@@H](Oc1ncc(Cl)cc1Cl)C(=O)NCc1ccc2[nH]ccc2c1 [Compound 37b, (R)-N-[(Indol-5-yl)methyl]-2-[(3,5-dichloropyridin-2-yl)oxy]butanamide]	2.6		improvement in the translocation assay over the unoptimized compound (P. aeruginosa T3SS [2]; 37b vs 34r): 2.5 fold
O=C(NN=Cc1cc(Br)cc(Br)c1O)c1ccc([N+](=O)[O-])cc1 [INP-007]			IC50 (P. aeruginosa T3SS [3]): 0.8 µM
N-(Benzothiophene-5-yl)-2-(2,4-dichlorophenoxy)propanamide [Compound 34o]		5.3 ± 3.7	IC50 (P. aeruginosa T3SS [1]; read-out: secretion IC50): 6 ± 1.6 µM
N-[(Benzimidazol-5-ylmethyl])-2-(2,4-dichlorophenoxy)propanamide [Compound 34q]		33 ± 8	
